This note sets out measurements from ChEMBL document CHEMBL2176967, “Radiofluorinated derivatives of 2-(phosphonomethyl)pentanedioic acid as inhibitors of prostate specific membrane antigen (PSMA) for the imaging of prostate cancer” (J Med Chem, 2012).

Series [1] addresses T1, Glutamate carboxypeptidase 2 (Homo sapiens, UniProt Q04609). The series is described as follows: Binding affinity to NAALADase.
In series [2] the target is T1, Glutamate carboxypeptidase 2. Put plainly: biochemical.
Description: Inhibition of NAALADase activity in human LNCaP cell membranes assessed as inhibition of [3H]NAG conversion to [3H]glutamate after 30 mins by liquid scintillation counting
In series [3] the test system is Kidney. Put plainly: Drug level in human LNCaP cells xenografted Balb/c mouse kidney at 10 MBq, iv measured after 45 to 130 mins by PET/CT scanning in presence of unlabelled compound. The series is classed as ADME, organism-based. Conditions: in vivo. (In general: In xenograft studies the graft and the host belong to different species.)
Series [4] in a line: Drug level in human LNCaP cells xenografted Balb/c mouse tumor at 10 MBq, iv measured after 45 to 130 mins by PET/CT scanning in presence of unlabelled compound. Format: ADME, organism-based, Neoplasm. Conditions: in vivo; call rule not given here.
The nature of series [5]: Drug level in human LNCaP cells xenografted Balb/c mouse gut at 10 MBq, iv measured after 45 to 130 mins by PET/CT scanning. The series is classed as ADME, organism-based. Conditions: in vivo.
For a further series, the system named is Liver. Put plainly: Drug level in human LNCaP cells xenografted Balb/c mouse liver at 10 MBq, iv measured after 45 to 130 mins by PET/CT scanning. The series is classed as ADME, organism-based. To be noted: in vivo.
The next series relates to Bone. The series is described as follows: Drug level in human LNCaP cells xenografted Balb/c mouse bone at 10 MBq, iv measured after 45 to 130 mins by PET/CT scanning. The series is classed as ADME, organism-based, Bone element. Conditions: in vivo.
In series [6] the test system is Kidney. The series is described as follows: Drug level in human LNCaP cells xenografted Balb/c mouse kidney at 10 MBq, iv measured after 45 to 130 mins by PET/CT scanning. Format: ADME, organism-based. To be noted: in vivo.
The test system of the next series is Urinary bladder. Put plainly: Drug level in human LNCaP cells xenografted Balb/c mouse bladder at 10 MBq, iv measured after 45 to 130 mins by PET/CT scanning. The series is classed as ADME, organism-based. To be noted: in vivo.
Series [7] is described as follows: Drug level in human LNCaP cells xenografted Balb/c mouse tumor at 10 MBq, iv measured after 45 to 130 mins by PET/CT scanning. The series is classed as ADME, organism-based, Neoplasm. To be noted: in vivo.

T1 sequence (Q04609 whole entry): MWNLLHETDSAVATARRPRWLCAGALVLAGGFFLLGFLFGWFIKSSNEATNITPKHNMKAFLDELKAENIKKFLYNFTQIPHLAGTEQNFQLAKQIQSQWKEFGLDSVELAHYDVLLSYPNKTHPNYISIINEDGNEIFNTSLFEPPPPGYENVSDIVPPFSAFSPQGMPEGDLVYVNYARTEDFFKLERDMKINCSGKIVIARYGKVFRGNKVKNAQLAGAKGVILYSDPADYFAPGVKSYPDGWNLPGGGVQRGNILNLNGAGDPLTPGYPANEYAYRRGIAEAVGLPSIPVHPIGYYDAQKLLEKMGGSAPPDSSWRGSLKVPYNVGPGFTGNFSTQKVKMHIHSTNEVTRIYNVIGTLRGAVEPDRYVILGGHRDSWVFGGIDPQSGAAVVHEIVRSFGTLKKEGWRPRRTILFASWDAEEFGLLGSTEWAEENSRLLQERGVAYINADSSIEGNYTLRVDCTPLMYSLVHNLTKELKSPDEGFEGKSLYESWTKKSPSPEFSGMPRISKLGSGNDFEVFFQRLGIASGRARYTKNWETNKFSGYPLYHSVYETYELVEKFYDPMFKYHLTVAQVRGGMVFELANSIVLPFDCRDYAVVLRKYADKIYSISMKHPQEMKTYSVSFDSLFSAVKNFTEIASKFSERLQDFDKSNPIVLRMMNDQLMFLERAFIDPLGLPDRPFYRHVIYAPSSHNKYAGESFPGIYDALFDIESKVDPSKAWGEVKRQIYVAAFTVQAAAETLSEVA

In series [1], `C[C@@H](C[C@H](NC(=O)N[C@@H](C[C@H](C)C(=O)O)C(=O)O)C(=O)O)C(=O)O` yielded a Ki of 1110 nM.

`C[C@H](C[C@H](NC(=O)N[C@@H](C[C@@H](C)C(=O)O)C(=O)O)C(=O)O)C(=O)O`: the Ki in series [1] was determined as 1280 nM.

With `O=C(O)[C@@H](C[C@@H](F)C(=O)O)CP(=O)(O)O`, in series [2], half-maximal inhibition (IC50) was put at 89.4 nM and the Ki worked out at 36.4 nM.

In series [2], `O=C(O)[C@H](C[C@H](F)C(=O)O)CP(=O)(O)O` showed an IC50 of 3.1 nM and a Ki of 1.4 nM.

In [2], `O=C(O)[C@H](C[C@@H](F)C(=O)O)CP(=O)(O)O` had an IC50 of 8.1 nM and a Ki of 3.1 nM.

`O=C(O)[C@@H](C[C@H](F)C(=O)O)CP(=O)(O)O`: in [2], the midpoint of inhibition, the IC50, lay at 55.9 nM and the affinity corresponds to a Ki of 22 nM.

Consider `O=C(N[C@@H](C[C@@H](Cc1ccccc1)C(=O)O)C(=O)O)N[C@@H](C[C@@H](Cc1ccccc1)C(=O)O)C(=O)O`, for which the affinity in series [1], expressed as Ki, was 392 nM. That is a sub-micromolar value.

For the compound `O=C(O)CCCC(CP(=O)(O)O)C(=O)O` (stereo not drawn), the IC50 in series [1] was 185 nM.

Regarding `O=C(O)CC[C@H](NC(=O)N[C@@H](CCC(=O)O)C(=O)O)C(=O)O`, in series [1], affinity was put at a Ki of 8 nM.

As for `O=C(O)C([18F])CC(CP(=O)(O)O)C(=O)O` (racemic), the Drug uptake entry was “Not Active” in the series with Kidney [3]; “Not Active” in [4]; “Not Active” in series [5]; “Not Active” in the series on Liver; “Active” in the series with Bone; “Active” in the series with Kidney [6]. In addition, the Drug uptake entry (with Urinary bladder; in [7]) was “Active” in each case.

For `O=C(O)C(F)CC(CP(=O)(O)O)C(=O)O` (racemic), in [2], the IC50 was found to be 6.8 nM and the Ki stood at 2.6 nM.

Broadly, the Ki is a dissociation constant, usually derived from enzyme kinetics or from competition with a known ligand. Low readings indicate higher affinity, high ones lower affinity. The term IC50 denotes the midpoint of a concentration-inhibition curve.
